This passage reports Emax and EC50 results from ChEMBL document CHEMBL2429785, “Substituted Benzylspiroindolin-2-one Analogues as Positive Allosteric Modulators of the Muscarinic Acetylcholine Receptor M1” (ACS Med Chem Lett, 2013).

Assay [1] deals with T1, Muscarinic acetylcholine receptor M1 (Homo sapiens) (UniProt P11229).
T1 sequence (whole entry): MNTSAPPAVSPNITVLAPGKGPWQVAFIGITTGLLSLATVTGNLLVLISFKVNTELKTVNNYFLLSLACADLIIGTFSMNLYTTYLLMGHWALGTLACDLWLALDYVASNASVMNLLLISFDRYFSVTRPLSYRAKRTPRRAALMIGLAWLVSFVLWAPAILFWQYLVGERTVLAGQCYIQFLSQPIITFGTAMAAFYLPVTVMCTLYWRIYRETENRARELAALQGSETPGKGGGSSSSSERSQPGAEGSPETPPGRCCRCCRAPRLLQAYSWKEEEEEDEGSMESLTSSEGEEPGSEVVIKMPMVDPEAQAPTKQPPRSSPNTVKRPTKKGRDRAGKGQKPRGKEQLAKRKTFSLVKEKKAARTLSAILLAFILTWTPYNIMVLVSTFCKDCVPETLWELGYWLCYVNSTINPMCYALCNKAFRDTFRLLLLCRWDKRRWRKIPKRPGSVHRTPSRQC
In words: Positive allosteric modulation at muscarinic acetylcholine receptor M1(unknown origin) relative to control.

Assay [2] has as its target T2, Muscarinic acetylcholine receptor M1 (Homo sapiens, UniProt P11229).
T2 sequence (P11229 whole entry): T1 sequence (whole entry)
In words: Positive allosteric modulation at muscarinic acetylcholine receptor M1(unknown origin).

What is called Emax is the size of the effect at its maximum, as opposed to the concentration needed. By EC50 is commonly meant the concentration at which the effect is half-maximal. A lower EC50 goes with greater potency.

`Cn1cc(-c2ccc(CN3C(=O)C4(OCCO4)c4ccccc43)c(F)c2)cn1` displayed an Emax in assay [1] of 86%. The molecule further came in with an EC50 in assay [2] of 3.2 µM.

With `CN1CCC2(C1)C(=O)N(Cc1ccc(-c3cnn(C)c3)cc1F)c1ccccc12` (centres undefined), the Emax in assay [1] turned out to be 76%. Besides, the EC50 in assay [2] amounted to 3.8 µM.
